We go through one compound from patent US7371780B2, “Use of calphostin C to treat drug-resistant tumor cells” (priority 2003, dated 2008).

In one experiment the test system is MCF-7DOX cells. Nature of the experiment: Cytoplasmic shrinkage by hematoxylin/eosin staining, MCF-7DOX. It is filed as cell-based, human. Here is the method:
For staining with hematoxylin and eosin, cells were grown in a six-well culture plate with each well containing a Snowcoat X-Tra™ microscope slide (Surgipath Laboratories, MB) immersed in 3 ml of H21 medium. When the cells reached 50% confluence, they were treated with 0-300 nM calphostin C, followed by a 2 hour exposure of the cultures to fluorescent light as described above. After light activation, the cells were placed in a 37° C. humidified incubator with 5% CO2 and incubated for an additional 22 hours. The cells were then stained with hematoxylin and eosin using a previously described procedure. Briefly, the media was removed from cell cultures and the cells that remained adhered to the slides were washed with PBS, fixed in formalin:acetone (1:2) for 2 min, and allowed to air dry for 10 min. After washing with distilled water, 250 μl of hematoxylin solution (BDH Chemicals, Toronto, ON) was placed on each slide and allowed to incubate with the cells for 5 min. The slides were then washed with distilled water, Scott's tap water (20 g MgSO4.7H2O, 1.5 g NaHCO3 in 1 L H2O), and a final wash with distilled water. The cells on the slides were then stained for 5 min in 250 μl of eosin solution (100 ml of 1% eosin, 10 ml of 1% phyloxine, 4 ml of glacial acetic acid, and 780 ml of 95% ethanol). The cells were then dehydrated by washing three times in 95% ethanol and twice in 100% ethanol. The small slide was then mounted on a standard microscope glass slide, and 10 randomly selected fields were viewed at 100× magnification and photographed. For each concentration of calphostin C, the total number of dead cells in each field was ascertained and expressed relative to the total number of cells in the field.

A further experiment has as its system MCF-7 cells. Nature of the experiment: Clonogenic assay, MCF-7 cells. It is filed as cell-based, human. Particulars: 24 h drug, calphostin C light-activated 2 h, read-out: IC50 (concentration required to kill or inhibit the growth of 50% of cells). As to the method: The breast cancer cell line MCF-7 (lot HTB-22) was obtained from the American […] (ATCC) and maintained in Dulbecco's H21 medium (MEM) supplemented with 10% Fetal Bovine Serum (FBS) (HyClone, Logan, Utah) in a humidified atmosphere containing 5% CO2 at 37° C. To establish drug resistant cell lines, MCF-7 cells were grown in the presence of either paclitaxel or doxorubicin, beginning at a concentration 1000-fold below that required to kill 50% of the cells (the IC50). The drug concentration was increased 3-fold every two weeks (two passages), with an aliquot of the cells removed for storage in liquid nitrogen before each increase in concentration. Dose escalation continued until all cells died, after which the cells able to tolerate the highest concentration of drug were thawed for subsequent study. In this way, paclitaxel-resistant (MCF-7TAX) and doxorubicin-resistant (MCF-7DOX) cell lines were established. The IC50 for each drug was determined using a clonogenic assay as outlined below. The drug resistant cells were kept in culture in the presence of the maximally tolerated drug dose. Before each experiment, the cell lines were grown for two days in the absence of drug after which fresh medium containing either calphostin C (Sigma Laboratories, Oakville, ON), doxorubicin (Adriamycin PFS®, USP, Mississauga, ON) or paclitaxel (Taxol, Bristol-Myers Squibb, Montreal, QC) was added at the concentrations indicated.
The sensitivity of MCF-7, MCF-7TAX and MCF-7DOX cells to calphostin C, paclitaxel or doxorubicin was determined using a clonogenic assay. Briefly, 2.5×10^5 cells were seeded into 25 cm^2 tissue culture flasks in Dulbecco's H21 medium supplemented with 10% FBS. The cells were allowed to grow overnight, after which the medium was removed and replaced with medium containing varying concentrations of paclitaxel, doxorubicin, or calphostin C (after 2 hours of light exposure to activate the molecule). […] The colonies present in 5 randomly selected fields were then counted by visual inspection. […]

Regarding `COc1c(C[C@@H](C)OC(=O)Oc2ccc(O)cc2)c2c3c(C[C@@H](C)OC(=O)c4ccccc4)c(OC)c(=O)c4c(O)cc(OC)c(c5c(OC)cc(O)c(c1=O)c52)c43` [calphostin C], in the experiment on MCF-7DOX cells, the “concentration at which cytoplasmic shrinkage was first observed” value was 100 nM and the “concentration required for complete cytoplasmic shrinkage” value was found to be 300 nM. Moreover, in the experiment on MCF-7DOX cells (25 nM calphostin C), the “percentage of cells exhibiting cytoplasmic shrinkage” value was “remained unchanged”. Besides, in the experiment on MCF-7 cells, the IC50 was determined as 13.2 nM.
